Experimental data reported in patent US11191742B2, “Methods of treating neurodegenerative disorders in a particular population” (ALZHEON, INC., priority 2015, dated 2021).

Assays:
Format in all cases: in vivo, human
[1] = test system: APOE4 heterozygous patients with Alzheimer's disease; assay: Phase 3 trials of tramiprosate, CDR-SB score, heterozygous APOE4+ patients; settings: Heterozygous APOE4+ patients ≤85 years
Protocol: (§1) The delta value in all of these tables is calculated by measuring the increase in score over baseline for each patient in a treatment group and obtaining the mean increase for such group and then subtracting that value from the mean increase in score over baseline for all patients in the placebo group. Thus, a positive delta value in these tables represents an improvement over the placebo group. Phase 3 human clinical trials of tramiprosate to treat Alzheimer's disease at doses of 100 mg BID and 150 mg BID for up to 78 weeks were run in both North America and Europe (1691 total patients enrolled). Placebos in both trials were treatment with donepezil either alone or in combination with memantine. ADAS-Cog scores and CDR-SB scores were obtained every 13 weeks for patients that remained in the trial. The patients were genotyped for APOE4 and the severity of their disease was measured using MMSE prior to the beginning of treatment. The data from both trials were merged for certain statistical analyses. […] We then performed additional subgroup analysis, subgrouping by APOE4 genotype/allele status (APOE4 heterozygous or APOE4 homozygous) and by disease severity (mild vs moderate) to determine if the number of c alleles and/or the severity of disease predicted a better outcome of tramiprosate therapy. […] In Table 4, *control treatment is donepezil either alone or in combination with memantine. Positive delta values quantitate the amount by which average increase in CDR-SB Score points above baseline for the control group exceeded the average increase in CDR-SB Score points above baseline for the treatment group.

[2] = test system: APOE4+ patients with Alzheimer's disease; assay: Phase 3 trials of tramiprosate, ADAS-Cog score, all APOE4+ patients; settings: for ADAS-Cog Score Change over Standard of Care (Δ improvement vs control): All APOE4+ patients ≤85 years
Protocol: as §1, with “Table 1,” for “Table 4,”, “in ADAS-Cog” for “in CDR-SB”

[3] = test system: APOE4/4 homozygous patients with Alzheimer's disease; assay: Phase 3 trials of tramiprosate, ADAS-Cog and CDR-SB by baseline MMSE, APOE4/4 homozygous subjects; settings: 150 mg BID
Protocol: Analysis of the efficacy or tramiprosate in APOE4/4 homozygous subjects based on baseline MMSE was performed to evaluate for differences in drug response between Mild and Moderate patients. […] analyses were performed on the following baseline MMSE categories: Mild-to-Moderate AD population (baseline MMSE 16-26 inclusive), Mild AD population (baseline MMSE 20-26 inclusive), and the More Mild AD population (baseline MMSE 22-26 inclusive). The data is shown below in FIG. 7, panels A and B.

[4] = Mild (MMSE 20-26), 100 mg BID, 52 weeks
[5] = Mild (MMSE 20-26), 100 mg BID, 65 weeks
[6] = Mild (MMSE 20-26), 100 mg BID, 78 weeks
[7] = Mild (MMSE 20-26), 150 mg BID, 52 weeks
[8] = Mild (MMSE 20-26), 150 mg BID, 65 weeks
[9] = Mild (MMSE 20-26), 150 mg BID, 78 weeks
[10] = Mild-to-Moderate (MMSE 16-26), 100 mg BID, 52 weeks
[11] = Mild-to-Moderate (MMSE 16-26), 100 mg BID, 65 weeks
[12] = Mild-to-Moderate (MMSE 16-26), 100 mg BID, 78 weeks
[13] = Mild-to-Moderate (MMSE 16-26), 150 mg BID, 52 weeks
[14] = Mild-to-Moderate (MMSE 16-26), 150 mg BID, 65 weeks
[15] = Mild-to-Moderate (MMSE 16-26), 150 mg BID, 78 weeks
[16] = Moderate (MMSE 16-19), 100 mg BID, 52 weeks
[17] = Moderate (MMSE 16-19), 100 mg BID, 65 weeks
[18] = Moderate (MMSE 16-19), 100 mg BID, 78 weeks
[19] = Moderate (MMSE 16-19), 150 mg BID, 52 weeks
[20] = Moderate (MMSE 16-19), 150 mg BID, 65 weeks
[21] = Moderate (MMSE 16-19), 150 mg BID, 78 weeks

NCCCS(=O)(=O)O [Tramiprosate, 3-amino-1-propanesulfonic acid]
CDR-SB Score Change over Standard of Care (Δ improvement vs control) [1, 4]: 0.2 points | CDR-SB Score Change over Standard of Care (Δ improvement vs control) [1, 5]: 0.3 points | CDR-SB Score Change over Standard of Care (Δ improvement vs control) [1, 6]: 0.3 points | CDR-SB Score Change over Standard of Care (Δ improvement vs control) [1, 7]: 0.1 points | CDR-SB Score Change over Standard of Care (Δ improvement vs control) [1, 8]: −0.1 points | CDR-SB Score Change over Standard of Care (Δ improvement vs control) [1, 9]: 0 points | CDR-SB Score Change over Standard of Care (Δ improvement vs control) [1, 10]: 0.5 points | CDR-SB Score Change over Standard of Care (Δ improvement vs control) [1, 11]: 0.5 points | CDR-SB Score Change over Standard of Care (Δ improvement vs control) [1, 12]: 0.6 points | CDR-SB Score Change over Standard of Care (Δ improvement vs control) [1, 13]: 0.4 points | CDR-SB Score Change over Standard of Care (Δ improvement vs control) [1, 14]: 0.3 points | CDR-SB Score Change over Standard of Care (Δ improvement vs control) [1, 15]: 0.50 points | CDR-SB Score Change over Standard of Care (Δ improvement vs control) [1, 16]: 1.00 points | CDR-SB Score Change over Standard of Care (Δ improvement vs control) [1, 17]: 1.00 points | CDR-SB Score Change over Standard of Care (Δ improvement vs control) [1, 18]: 1.00 points | CDR-SB Score Change over Standard of Care (Δ improvement vs control) [1, 19]: 1.00 points | CDR-SB Score Change over Standard of Care (Δ improvement vs control) [1, 20]: 1.1 points | CDR-SB Score Change over Standard of Care (Δ improvement vs control) [1, 21]: 1.5 points | Effect on ADAS-Cog compared with the placebo ([2]; APOE4+ subgroup, both 100 mg and 150 mg treatment groups): statistically significant effect | ADAS-Cog Score Change over Standard of Care (Δ improvement vs control) [2, 4]: 0.82 points | ADAS-Cog Score Change over Standard of Care (Δ improvement vs control) [2, 5]: 0.99 points | ADAS-Cog Score Change over Standard of Care (Δ improvement vs control) [2, 6]: 1.3 points | ADAS-Cog Score Change over Standard of Care (Δ improvement vs control) [2, 7]: 0.17 points | ADAS-Cog Score Change over Standard of Care (Δ improvement vs control) [2, 8]: 0.71 points | ADAS-Cog Score Change over Standard of Care (Δ improvement vs control) [2, 9]: 0.27 points | ADAS-Cog Score Change over Standard of Care (Δ improvement vs control) [2, 10]: 1.67 points | ADAS-Cog Score Change over Standard of Care (Δ improvement vs control) [2, 11]: 1.82 points | ADAS-Cog Score Change over Standard of Care (Δ improvement vs control) [2, 12]: 2.03 points | ADAS-Cog Score Change over Standard of Care (Δ improvement vs control) [2, 13]: 0.95 points | ADAS-Cog Score Change over Standard of Care (Δ improvement vs control) [2, 14]: 1.23 points | ADAS-Cog Score Change over Standard of Care (Δ improvement vs control) [2, 15]: 0.77 points | ADAS-Cog Score Change over Standard of Care (Δ improvement vs control) [2, 16]: 3.45 points | ADAS-Cog Score Change over Standard of Care (Δ improvement vs control) [2, 17]: 3.45 points | ADAS-Cog Score Change over Standard of Care (Δ improvement vs control) [2, 18]: 3.32 points | ADAS-Cog Score Change over Standard of Care (Δ improvement vs control) [2, 19]: 2.52 points | ADAS-Cog Score Change over Standard of Care (Δ improvement vs control) [2, 20]: 2.23 points | ADAS-Cog Score Change over Standard of Care (Δ improvement vs control) [2, 21]: 1.57 points | Improvement compared with patients with lower MMSE at baseline ([3]; Mild AD (baseline MMSE ≥20) or More Mild AD (baseline MMSE ≥22)): higher improvement | Efficacy and cognitive benefit by baseline MMSE ([3]; baseline MMSE ≥22 (More Mild), 78 weeks): highest efficacy and a sustained cognitive benefit
